Laboratory results taken from patent US9067922B2, “Chemical compounds” (Pfizer Limited, priority 2013, dated 2015).

The compounds below were run against URAT-1 transporter (Homo sapiens (Human), UniProt Q96S37) (assay: URAT-1 inhibitor activity: [14C]-uric acid uptake in CHO-URAT1(L)GFP#8 (CHO#8) cells, scintillation proximity). Settings: inhibition of [14C]-uric acid (30 nM) uptake into CHO#8 cells; compound 0 to 10 μM; 4 parameter logistic fit.
Type: cell-based
Text: The nucleotide sequence for the long isoform of URAT1 (NM_144585) was C-terminally fused to that of enhanced green fluorescent protein (eGFP) (hereinafter referred to as URAT1(L)GFP). The combined sequence was codon-optimised and custom synthesized. The synthesized sequence was generated in pDONR221 Gateway entry vector (Invitrogen Life Technologies) prior to cloning in pLenti6.3/V5 Gateway destination vector (Invitrogen Life Technologies).
Lentiviral particles were generated according to ViraPower HiPerform expression system procedure (Invitrogen Life Technologies) and used to transduce CHO cells. […] The clonal pools were sorted using fluorescence-activated cell sorting (FACS) on the basis of GFP expression with the gating set at the top 50% of expression into single cells which were subsequently expanded to generate clonal lines. […] This cell line was used for all screening activities and is referred to as CHO-URAT1(L)GFP#8 or CHO#8.
The potency of the compounds of formula (I) as inhibitors of the URAT-1 transporter was determined as follows.
CHO#8 cells were cultured in cell line maintenance flasks in medium consisting of Dulbecco's modified Eagle medium (DMEM) with high glucose and sodium pyruvate (4.5 g of glucose per liter, Invitrogen Life Technologies), supplemented with heat-inactivated foetal bovine serum (FBC, 10% v/v), 1×NEAA (non-essential amino acids) and blasticidin (10 μg/ml). Cultures were grown in 175 cm^2 tissue culture flasks in a humidified incubator at approximately 37° C. in approximately 95% air/5% CO2. Near confluent CHO#8 cell cultures were harvested by trypsinisation, re-suspended in culture medium and the process was repeated once or twice weekly to provide sufficient cells for use.
Assay ready flasks were generated by the same method, except the cells were not cultured in blasticidin.
Assay ready frozen cells were generated by freezing 40,000,000 cells in 1 ml of FBS (without blasticidin) containing 10% DMSO per vial. One vial was sufficient for 5 assay plates. Each vial was thawed rapidly to 37° C., washed and re-suspended in pre-warmed culture medium for seeding onto assay plates.
CHO#8 cells were seeded onto Cytostar™ 96-well plates at a density of […]. The cells were cultured for 1 day at approximately 37° C. in a humidified incubator containing approximately 5% CO2 in air. After approximately 24 hours culture, cells were used for uptake experiments.
On the day of assay, culture medium was removed from the wells and the cells were washed once with 50 μL of chloride-containing buffer (136.7 mM NaCl, 5.36 mM KCl, 0.952 mM CaCl2, 0.441 mM KH2PO4, 0.812 mM MgSO4, 5.6 mM D-glucose, 0.383 mM Na2HPO4.2H2O, 10 mM HEPES, pH 7.4 with NaOH). The cells were pre-incubated with another 50 μL of chloride-containing buffer for one hour at approximately 37° C. in a humidified incubator containing approximately 5% CO2 in air.
Assay compound plates were prepared by diluting the compounds of formula (I) with chloride-free buffer (125 mM Na-gluconate, 4.8 mM K-gluconate, 1.3 mM Ca-gluconate, 1.2 mM KH2PO4, 1.2 mM MgSO4, 5.6 mM D-glucose, 25 mM HEPES, pH 7.4 with NaOH) in 100% DMSO to a final concentration of 1% DMSO. [^14C]-Uric Uric acid working stock was made by addition of radiolabeled compound to a final concentration of 120 nM in chloride-free buffer. In all wells, the final assay concentration of solvent (DMSO) was 0.25%; the final assay concentration of [^14C]-uric acid was 30 nM in chloride-free buffer and the final compound of formula (I) concentrations ranged from 0 to 10 μM.
After pre-incubation, cells were washed with 50 μL of chloride-free buffer and another 50 μL of chloride-free buffer was added.

Sequence of URAT-1 transporter (Q96S37 other isoform, or with tags, fused parts or gaps): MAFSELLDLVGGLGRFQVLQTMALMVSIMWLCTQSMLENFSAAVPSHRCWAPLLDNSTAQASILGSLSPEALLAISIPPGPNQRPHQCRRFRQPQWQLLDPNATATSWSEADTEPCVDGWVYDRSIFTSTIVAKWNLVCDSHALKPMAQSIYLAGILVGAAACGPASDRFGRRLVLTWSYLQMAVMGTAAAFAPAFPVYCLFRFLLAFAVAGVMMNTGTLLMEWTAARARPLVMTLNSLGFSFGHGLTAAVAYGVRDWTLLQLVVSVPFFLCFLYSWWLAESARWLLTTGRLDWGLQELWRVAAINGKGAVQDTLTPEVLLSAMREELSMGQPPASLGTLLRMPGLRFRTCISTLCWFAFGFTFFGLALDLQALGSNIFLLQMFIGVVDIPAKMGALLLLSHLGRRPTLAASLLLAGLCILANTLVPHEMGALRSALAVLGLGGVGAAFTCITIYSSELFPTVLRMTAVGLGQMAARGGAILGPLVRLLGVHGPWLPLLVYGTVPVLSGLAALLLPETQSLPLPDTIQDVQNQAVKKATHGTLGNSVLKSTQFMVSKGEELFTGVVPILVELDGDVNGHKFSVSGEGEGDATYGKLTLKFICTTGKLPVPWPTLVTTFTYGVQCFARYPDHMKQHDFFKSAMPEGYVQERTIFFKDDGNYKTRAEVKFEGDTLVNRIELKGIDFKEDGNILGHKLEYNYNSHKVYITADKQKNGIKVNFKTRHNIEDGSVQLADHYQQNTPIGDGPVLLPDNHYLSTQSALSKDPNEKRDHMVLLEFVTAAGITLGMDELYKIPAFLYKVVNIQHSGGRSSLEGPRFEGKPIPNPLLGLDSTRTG

First: N#Cc1ccc(Oc2ccc(S(=O)(=O)Nc3cncnc3)cc2C#N)cc1Cl [Example 96, 4-(3-chloro-4-cyanophenoxy)-3-cyano-N-(pyrimidin-5-yl)benzenesulfonamide]
Second: N#Cc1ccc(Oc2ccc(S(=O)(=O)Nc3cccnc3)cc2C#N)cc1Cl [Example 92, 4-(3-chloro-4-cyanophenoxy)-3-cyano-N-(pyridin-3-yl)benzenesulfonamide]
The IC50 of the first is higher: > 10000 nM for the first, 414 nM for the second.

Compared with `Cc1cc(Oc2ccc(S(=O)(=O)Nc3ccc(F)cn3)cc2C#N)c(C(C)C)cc1Cl` [Example 133, 4-[4-chloro-5-methyl-2-(propan-2-yl)phenoxy]-3-cyano-N-(5-fluoropyridin-2-yl)benzenesulfonamide], `Cc1cc(Cl)cc(Oc2ccc(S(=O)(=O)Nc3ccc(F)cn3)cc2C#N)c1C` [Example 159, 4-(5-chloro-2,3-dimethylphenoxy)-3-cyano-N-(5-fluoropyridin-2-yl)benzenesulfonamide] is 1.5-fold lower in IC50: 793 nM for the first, 514 nM for the second. The second is the more potent here.

Compared with `Cc1ccc(F)c(Oc2ccc(S(=O)(=O)Nc3ccc(F)cn3)cc2C#N)c1F` [Example 119, 3-cyano-4-(2,6-difluoro-3-methylphenoxy)-N-(5-fluoropyridin-2-yl)benzenesulfonamide], `N#Cc1cc(S(=O)(=O)Nc2ccc(F)cn2)ccc1Oc1c(F)cccc1F` [Example 124, 3-cyano-4-(2,6-difluorophenoxy)-N-(5-fluoropyridin-2-yl)benzenesulfonamide] is higher in IC50: 90 nM for the first, > 10000 nM for the second.

First: COc1ccc(Oc2ccc(S(=O)(=O)Nc3ccc(F)cn3)cc2C#N)cn1 [Example 199, 3-cyano-N-(5-fluoropyridin-2-yl)-4-[(6-methoxypyridin-3-yl)oxy]benzenesulfonamide]
Second: CC(C)COc1ccc(Oc2ccc(S(=O)(=O)Nc3ccc(F)cn3)cc2C#N)cn1 [Example 121, 3-cyano-N-(5-fluoropyridin-2-yl)-4-{[6-(2-methylpropoxy)pyridin-3-yl]oxy}benzenesulfonamide]
The IC50 of the first is lower: 129 nM for the first, > 10000 nM for the second.

`N#Cc1c(Cl)cccc1Oc1ccc(S(=O)(=O)Nc2ncccn2)cc1` [Example 222, 4-(3-chloro-2-cyanophenoxy)-N-(pyrimidin-2-yl)benzenesulfonamide] and `N#Cc1cc(S(=O)(=O)Nc2ncccn2)ccc1Oc1ccc(F)c(F)c1` [compound 211] cannot be ordered by IC50: > 10000 nM for the first, > 3000 nM for the second.

Compared with `N#Cc1cc(S(=O)(=O)Nc2ccc(F)cn2)ccc1Oc1cccc(Cl)c1` [Example 25, 4-(3-chlorophenoxy)-3-cyano-N-(5-fluoropyridin-2-yl)benzenesulfonamide], `N#Cc1cc(S(=O)(=O)Nc2ccc(F)cn2)ccc1Oc1cccc(F)c1` [Example 52, 3-cyano-4-(3-fluorophenoxy)-N-(5-fluoropyridin-2-yl)benzenesulfonamide] is 3-fold higher in IC50: 86 nM for the first, 259 nM for the second. The first is the more potent here.

Going from `COc1ccncc1Oc1ccc(S(=O)(=O)Nc2ccc(F)cn2)cc1C#N` [Example 190, 3-cyano-N-(5-fluoropyridin-2-yl)-4-[(4-methoxypyridin-3-yl)oxy]benzenesulfonamide] to `COc1cccc(F)c1Oc1ccc(S(=O)(=O)Nc2ccc(F)cn2)cc1C#N` [Example 111, 3-cyano-4-(2-fluoro-6-methoxyphenoxy)-N-(5-fluoropyridin-2-yl)benzenesulfonamide], the IC50 falls from > 10000 nM to 74 nM.

`CCc1cccc(Oc2ccc(S(=O)(=O)Nc3ccc(F)cn3)cc2C#N)c1` [Example 2, 3-cyano-4-(3-ethylphenoxy)-N-(5-fluoropyridin-2-yl)benzenesulfonamide] and `CC(C)c1cccc(Oc2ccc(S(=O)(=O)Nc3ccc(F)cn3)cc2C#N)c1` [Example 57, 3-cyano-N-(5-fluoropyridin-2-yl)-4-[3-(propan-2-yl)phenoxy]benzenesulfonamide] cannot be ordered by IC50: > 10000 nM for the first, > 10000 nM for the second.

Going from `N#Cc1ccc(Cl)c(Oc2ccc(S(=O)(=O)Nc3ccc(F)cn3)cc2C#N)c1` [Example 63, 4-(2-chloro-5-cyanophenoxy)-3-cyano-N-(5-fluoropyridin-2-yl)benzenesulfonamide] to `N#Cc1ccc(Oc2ccc(S(=O)(=O)Nc3ccc(F)cn3)cc2C#N)cc1Cl` [Example 1, 4-(3-chloro-4-cyanophenoxy)-3-cyano-N-(5-fluoropyridin-2-yl)benzenesulfonamide], the IC50 falls from 321 nM to 13 nM (25-fold). The second is the more potent here.

Compared with `Cc1cc(Oc2ccc(S(=O)(=O)Nc3ccc(F)cn3)cc2C#N)ccc1F` [Example 141, 3-cyano-4-(4-fluoro-3-methylphenoxy)-N-(5-fluoropyridin-2-yl)benzenesulfonamide], `Cc1ccc(Oc2ccc(S(=O)(=O)Nc3ccc(F)cn3)cc2C#N)cc1C#N` [Example 59, 3-cyano-4-(3-cyano-4-methylphenoxy)-N-(5-fluoropyridin-2-yl)benzenesulfonamide] is higher in IC50: 43 nM for the first, > 10000 nM for the second.

First: N#Cc1cc(S(=O)(=O)Nc2ccc(F)cn2)ccc1Oc1cccc(Cl)c1F [Example 24, 4-(3-chloro-2-fluorophenoxy)-3-cyano-N-(5-fluoropyridin-2-yl)benzenesulfonamide]
Second: N#Cc1cc(S(=O)(=O)Nc2ccc(F)cn2)ccc1Oc1cccc(C#N)c1F [Example 75, 3-cyano-4-(3-cyano-2-fluorophenoxy)-N-(5-fluoropyridin-2-yl)benzenesulfonamide]
The IC50 of the first is 16-fold lower: 135 nM for the first, 2210 nM for the second.

First: Cc1cc(Oc2ccc(S(=O)(=O)Nc3ccc(F)cn3)cc2C#N)cc(C)c1Cl [Example 149, 4-(4-chloro-3,5-dimethylphenoxy)-3-cyano-N-(5-fluoropyridin-2-yl)benzenesulfonamide]
Second: Cc1cc(Oc2ccc(S(=O)(=O)Nc3ccc(F)cn3)cc2C#N)cc(C)c1C#N [Example 79, 3-cyano-4-(4-cyano-3,5-dimethylphenoxy)-N-(5-fluoropyridin-2-yl)benzenesulfonamide]
The IC50 of the first is 14-fold higher: 95 nM for the first, 7 nM for the second. The second is the more potent here.

Compared with `N#Cc1cc(S(=O)(=O)Nc2ccc(F)cn2)ccc1Oc1cccc(C(F)(F)F)c1F` [Example 29, 3-cyano-N-(5-fluoropyridin-2-yl)-4-[2-fluoro-3-(trifluoromethyl)phenoxy]benzenesulfonamide], `Cc1cc(F)ccc1Oc1ccc(S(=O)(=O)Nc2ccc(F)cn2)cc1C#N` [Example 145, 3-cyano-4-(4-fluoro-2-methylphenoxy)-N-(5-fluoropyridin-2-yl)benzenesulfonamide] is lower in IC50: > 10000 nM for the first, 96 nM for the second. The second is the more potent here.

First: CCOc1ccccc1Oc1ccc(S(=O)(=O)Nc2ccc(F)cn2)cc1C#N [Example 151, 3-cyano-4-(2-ethoxyphenoxy)-N-(5-fluoropyridin-2-yl)benzenesulfonamide]
Second: Cc1ccc(Oc2ccc(S(=O)(=O)Nc3ccc(F)cn3)cc2C#N)c(C)c1Cl [Example 175, 4-(3-chloro-2,4-dimethylphenoxy)-3-cyano-N-(5-fluoropyridin-2-yl)benzenesulfonamide]
The IC50 of the first is higher: > 10000 nM for the first, 455 nM for the second. The second is the more potent here.

First: N#Cc1ccc(NS(=O)(=O)c2ccc(Oc3ccc(F)c(Cl)c3)c(C#N)c2)nc1 [compound 230]
Second: Cc1cc(C)cc(Oc2ccc(S(=O)(=O)Nc3ccc(F)cn3)cc2C#N)c1 [Example 150, 3-cyano-4-(3,5-dimethylphenoxy)-N-(5-fluoropyridin-2-yl)benzenesulfonamide]
The IC50 of the first is 5.3-fold lower: 62 nM for the first, 329 nM for the second.

With `N#Cc1cc(S(=O)(=O)Nc2ccc(F)cn2)ccc1Oc1cccc(OC(F)(F)F)c1` [Example 18, 3-cyano-N-(5-fluoropyridin-2-yl)-4-[3-(trifluoromethoxy)phenoxy]benzenesulfonamide] the IC50 was > 10000 nM.
